In patent US6849619B2, “Substituted pyridoindoles as serotonin agonists and antagonists” (Bristol-Myers Squibb Company, priority 2000, dated 2005):

Row | melting point | SMILES
1 | 59 to 68 °C | CCOc1ncc(C)cc1Nc1cc2c3c(c1)[C@@H]1CNCC[C@@H]1N3CCOC2 [Example 173, (7bR,11aS)-N-(2-Ethoxy-5-methyl-3-pyridinyl)-1,2,7b,8,9,10,11,11a-octahydro-4H-[1,4]oxazepino[6,5,4-hi]pyrido[4,3b]indole-6-amine]
2 | 122 to 124 °C | COc1ncc(C)cc1Nc1cc2c3c(c1)[C@@H]1CNCC[C@@H]1N3CCOC2 [Example 172, (7bR,11aS)-N-(2-Methoxy-5-methyl-3-pyridinyl)-1,2,7b,8,9,10,11,11a-octahydro-4H-[1,4]oxazepino[6,5,4-hi]pyrido[4,3-b]indole-6-amine]
